Values of other authors as cited in patent US7459141B2, “Technetium-99m-labeled organic germanium nanocolloids, method of preparing the same and use thereof” (Korea Atomic Energy Research Institute, priority 2006, dated 2008).

In the case of `O=C(O)C[CH2][Ge](=[O])[O][Ge](=[O])[CH2]CC(=O)O` [Ge-132, bis-carboxyethylgermanium sesquioxide], the “tissue concentration after an intravenous (i.v) injection” value (intravenous) is given as “concentrates in liver, kidney, spleen and gastrointestine tract” and the “tissue concentration after an oral administration” value (oral) is given as “concentrates highly in spleen”.
